Assay [1] has as its target T1, full length recombinant Pim-1 protein (Homo sapiens, UniProt P11309).
T1 construct: by full length recombinant Pim-1, Pim-2, or Pim-3 protein; hexahistidine tag followed by a thrombin cleavage site (N); made in house; host or cells: Sf9 (baculovirus) or E. coli (pET28)
Briefly: Pim-1 enzyme assay (HTRF, phosphorylation of biotinylated-BAD (S112) peptide). The following applies: read-out: Pim_1_IC50. The format is biochemical. In outline: (§1)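 HTRF read-out: Eu-labelled anti-phospho-BAD (S112) antibody plus streptavidin-APC detect phosphorylated biotin-BAD peptide. Enzymes were full-length recombinant human Pim-1 and Pim-2; buffer 60 mM Hepes pH 7.0, 0.05% BSA, 2 mM DTT; reactions quenched with 3 mM EDTA. Percent-of-control data fitted to a 4-parameter logistic for IC50.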

Assay [2] concerns the target T2, Pim-1 stably transfected into the U2OS human osteogenic sarcoma line (Homo sapiens, UniProt P11309).
T2 construct: expressed in transfected cells; host or cells: U2OS human osteogenic sarcoma line
The experiment in a line: Pim cell assay, phospho-BAD normalized against total BAD, U2OS stably transfected with Pim-1. Type of assay: cell-based. The protocol:
(§2) The cell lines used in the assay were generated by the stable transfection of either Pim-1 or Pim-2 into the U2OS human osteogenic sarcoma line. The assay for determination of the Pim activity in the engineered U2OS cell lines measures levels of phospho-BAD normalized against total BAD protein levels. It was conducted as follows:
(§3) The adherent cells were dissociated from the flasks using non-enzymatic cell dissociation solution (Sigma # C5914). […] The cells were then incubated overnight at 37° C., 5% CO2.
(§4) In addition to the 10-point dosing curve of the test compound, DMSO alone was run as the high control.
(§5) This dilution in DMSO was then diluted again into cell growth medium. Aliquots (12 uL) of the compound diluted in growth medium were then transferred to the appropriate wells of the 96-well plates containing cells to yield a final DMSO concentration of 0.3%.
(§6) The cell plates containing lysis buffer were then immediately stored at −70° C.
(§7) These prepared lysates were then assayed for phospho and total BAD according to the manufacturer's protocols (Meso Scale Diagnostics, Cat# K15103C-3 & # K15103D-3). The plates were read on the MSD Sector Imager 6000, and results were calculated according to the assay protocols ((% Phosphoprotein=((2×Phospho signal)/(Phospho signal+Total signal))×100)).

Assay [3] deals with T3, full length recombinant Pim-2 protein (Homo sapiens, UniProt Q9P1W9).
T3 construct: by full length recombinant Pim-1, Pim-2, or Pim-3 protein; hexahistidine tag followed by a thrombin cleavage site (N); made in house; host or cells: Sf9 (baculovirus) or E. coli (pET28)
T3 sequence (Q9P1W9 whole entry): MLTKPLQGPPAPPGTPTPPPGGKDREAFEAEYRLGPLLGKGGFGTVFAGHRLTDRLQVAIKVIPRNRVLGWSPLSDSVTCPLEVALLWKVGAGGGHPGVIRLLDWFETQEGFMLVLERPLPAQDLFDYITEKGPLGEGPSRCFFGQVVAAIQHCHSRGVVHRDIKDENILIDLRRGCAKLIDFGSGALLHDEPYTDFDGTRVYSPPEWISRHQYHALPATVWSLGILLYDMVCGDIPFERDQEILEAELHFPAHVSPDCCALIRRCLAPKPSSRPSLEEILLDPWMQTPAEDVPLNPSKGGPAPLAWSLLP
The experiment in a line: Pim-2 enzyme assay (HTRF, phosphorylation of biotinylated-BAD (S112) peptide). The following applies: read-out: Pim2_IC50. Type of assay: biochemical. The method, boiled down: as §1
A general note: TR-FRET usually uses a lanthanide donor and a delayed reading to cut background.

The target of assay [4] is T4, Pim-2 stably transfected into the U2OS human osteogenic sarcoma line (Homo sapiens, UniProt Q9P1W9).
T4 construct: expressed in transfected cells; host or cells: U2OS human osteogenic sarcoma line
T4 sequence (Q9P1W9 whole entry): as above
Briefly: Pim cell assay, phospho-BAD normalized against total BAD, U2OS stably transfected with Pim-2. Further: high dose 31.6 µM. Type of assay: cell-based. Particulars: U2OS cells stably transfected with Pim-2, phospho-BAD; high dose […]; read-out: Pim2_Cell_IC50. As for the experimental part: as §2, §3, §4, §5, §6, §7

The mark [5] stands for this setting: U2OS stably transfected with Pim-1, phospho-BAD normalized against total BAD, 29 min incubation, read-out: Pim1_Cell_IC50_.

From US9090593B2, “Bicyclic compounds as Pim inhibitors” (AMGEN INC., priority 2010, dated 2015) come the findings set out here.

Where two headings read alike, the source gives them in different places.

T1 sequence (P11309 whole entry): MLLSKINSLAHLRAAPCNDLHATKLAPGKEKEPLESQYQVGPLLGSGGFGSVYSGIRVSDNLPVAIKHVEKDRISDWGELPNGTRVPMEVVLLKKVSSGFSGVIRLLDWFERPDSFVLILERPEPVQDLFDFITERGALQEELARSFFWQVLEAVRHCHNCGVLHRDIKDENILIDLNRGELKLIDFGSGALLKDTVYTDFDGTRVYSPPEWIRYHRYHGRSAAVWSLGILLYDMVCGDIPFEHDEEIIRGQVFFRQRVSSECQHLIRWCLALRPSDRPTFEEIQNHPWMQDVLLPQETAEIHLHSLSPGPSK
T2 sequence (P11309 whole entry): as above

Consider `Cc1ccn(-c2cccc(-c3ccc4[nH]cc(-c5cncc(O[C@@H]6CCCNC6)n5)c4c3)n2)n1` [Example 307], for which the IC50 in assay [1] stood at 6 nM; in assay [2] (setting [5]), 1600 nM; in assay [3] it was 114 nM.
`Nc1cnnc(-c2ccc3[nH]nc(-c4cncc(N5CCC(N)CC5)n4)c3c2)c1` [Example 104, 6-(3-(6-(4-amino-1-piperidinyl)-2-pyrazinyl)-1H-indazol-5-yl)-4-pyridazinamine]: the IC50 in assay [2] (U2OS cells stably transfected with Pim-1, phospho-BAD, high dose […], read-out: Pim1_Cell_IC50) was 1920 nM; in assay [4] it was above 31600 nM; in assay [3] (enzyme assay, Pim-2), 1 nM.
Regarding `c1cc2[nH]cc(-c3cncc(O[C@@H]4CCCNC4)n3)c2cc1-c1cncc(N2CCCC2)n1` [Example 302], the IC50 in assay [1] was 9 nM; in assay [2] (setting [5]), 995 nM; in assay [3], 189 nM.
The corresponding values for `Cc1nccn1-c1cccc(-c2ccc3[nH]cc(-c4cncc(O[C@@H]5CCCNC5)n4)c3c2)n1` [Example 305] are 7 nM, 754 nM and 127 nM.
The corresponding values for `CC1(Oc2cncc(-c3n[nH]c4ccc(-c5c(F)cccc5F)cc34)n2)CCCNC1` (centres unmarked) [Example 417] are 15 nM, 1480 nM and 335 nM.
For `COc1ccc(-c2ccc3[nH]cc(-c4cncc(O[C@@H]5CCCNC5)n4)c3c2)cn1` [Example 310], in that order: 6 nM, 295 nM and 41 nM.
`c1cc(OCC2CC2)ncc1-c1ccc2[nH]cc(-c3cncc(O[C@@H]4CCCNC4)n3)c2c1` [Example 323]: the IC50 was found to be 8 nM in assay [1], 1310 nM in assay [2] (setting [5]) and 67 nM in assay [3].
For `Fc1cccc(F)c1-c1ccc2[nH]nc(-c3cncc(SC4CCCNC4)n3)c2c1` (single isomer, unassigned) [Example 414], in that order: 7 nM, 1540 nM and 60 nM.
The corresponding values for `COc1c(C)cc(-c2ccc3[nH]cc(-c4cncc(O[C@@H]5CCCNC5)n4)c3c2)cc1C` [Example 331] are 8 nM, 1280 nM and 111 nM.
The corresponding values for `CC1(C)CC1c1ccc2[nH]cc(-c3cncc(O[C@@H]4CCCNC4)n3)c2c1` (some centres unmarked) [Example 312] are 9 nM, 1310 nM and 31 nM.
As for `NC1CCN(c2cncc(-c3n[nH]c4ccc(-c5cc6[nH]ccc6cn5)cc34)n2)CC1` [Example 504], the IC50 is 5 nM in assay [1], 7560 nM in assay [2] (setting [5]) and 127 nM in assay [3].
Regarding `c1cc(OC2CCC2)nc(-c2ccc3[nH]cc(-c4cncc(O[C@@H]5CCCNC5)n4)c3c2)c1` [Example 301], the values for the IC50 in assay [1], in assay [2] (setting [5]) and in assay [3] were 13 nM, 2540 nM and 122 nM, respectively.
For `CC(C)n1cc(-c2ccc3[nH]cc(-c4cncc(O[C@@H]5CCCNC5)n4)c3c2)cn1` [Example 308, 5-(1-(1-methylethyl)-1H-pyrazol-4-yl)-3-(6-((3R)-3-piperidinyloxy)-2-pyrazinyl)-1H-indole], the IC50 amounted to 8 nM in assay [1], 160 nM in assay [2] (setting [5]) and 76 nM in assay [3].
With `CNC(=O)c1ccc2[nH]nc(-c3cncc(N[C@@H]4CCCNC4)n3)c2c1` [Example 475], the figures for the IC50 in assay [1] and in assay [3] were 30 nM and 192 nM, respectively.
With `NC(=O)c1ccc(F)c(-c2ccc3[nH]nc(-c4cncc(OCCF)n4)c3c2)c1` [Example 390], the IC50 was found to be 119 nM in assay [1] and 241 nM in assay [3].
In the case of `CN(C)c1cnc(-c2ccc3[nH]cc(-c4cncc(O[C@@H]5CCCNC5)n4)c3c2)cn1` [Example 319], the IC50 was 24 nM in assay [1] and 68 nM in assay [3].
The corresponding values for `Fc1cccc(F)c1-c1ccc2[nH]nc(-c3cncc(OC4C=CCNC4)n3)c2c1` (single isomer, unassigned) [Example 426] are 105 nM and 174 nM.
As to `NC1CCN(c2cncc(-c3n[nH]c4ccc(-c5cncc(C6CC6)n5)cc34)n2)CC1` [Example 109, 1-(6-(5-(6-cyclopropyl-2-pyrazinyl)-1H-indazol-3-yl)-2-pyrazinyl)-4-piperidinamine], the IC50 in assay [4] is 1730 nM; in assay [3] (enzyme assay, Pim-2) it was 2 nM.
As for `COc1cncc(-c2n[nH]c3ccc(-c4cc(C(F)(F)F)ccn4)cc23)n1` [Example 378], the IC50 is 627 nM in assay [1] and above 1000 nM in assay [3].
Take `COc1cccc(-c2ccc3[nH]cc(-c4cncc(O[C@@H]5CCCNC5)n4)c3c2)c1` [Example 320]: the IC50 is 6 nM in assay [1], 592 nM in assay [2] (setting [5]) and 30 nM in assay [3].
For `c1cc2[nH]nc(-c3cncc(O[C@H]4CNCCC45CC5)n3)c2cc1-c1cncc(C2CC2)n1` [Example 275, 3-(6-((4R)-6-azaspiro[2.5]oct-4-yloxy)-2-pyrazinyl)-5-(6-cyclopropyl-2-pyrazinyl)-1H-indazole], the values for the IC50 in assay [1] and in assay [3] were 9 nM and 99 nM, respectively.
For `COc1cc(N2CCC(N)CC2)nc(-c2c[nH]c3ccc(-c4c(F)cccc4F)cc23)n1` [Example 563], in that order: 87 nM and 143 nM.
For `COC(=O)c1ccc2[nH]nc(-c3nccc(N4CCC(N)CC4)n3)c2c1` [Example 488], in that order: 46 nM and 55 nM.
In the case of `c1cc2[nH]nc(-c3cncc(O[C@@H]4CNCCC45CC5)n3)c2cc1N1CCOCC1` [Example 399], the IC50 in assay [1] and in assay [3] was above 1000 nM throughout.
In the case of `CC1CCCCN1c1nc(-c2ccc3[nH]cc(-c4cncc(O[C@@H]5CCCNC5)n4)c3c2)cs1` (mixture of isomers) [Example 303], the IC50 was determined as 158 nM in assay [1] and 733 nM in assay [3].
For `COc1ccc(Cl)cc1-c1ccc2[nH]cc(-c3cncc(O[C@@H]4CCCNC4)n3)c2c1` [Example 317], in that order: 53 nM and 297 nM.
For `Fc1cccc(F)c1-c1ccc2[nH]nc(-c3cncc(CC4CCCNC4)n3)c2c1` (single isomer, unassigned) [Example 273, 5-(2,6-difluorophenyl)-3-(6-(3-piperidinylmethyl)-2-pyrazinyl)-1H-indazole], in that order: 70 nM and 287 nM.
The corresponding values for `C[C@H]1COCCN1c1ccc2[nH]nc(-c3cncc(O[C@H]4CNCCC45CC5)n3)c2c1` [Example 402] are 30 nM and 39 nM.
`NC1CCN(c2cc(-c3c[nH]c4ccc(-c5ccccc5F)nc34)nc(O)n2)CC1` [Example 288, 4-(4-aminopiperidin-1-yl)-6-(5-(2-fluorophenyl)-1H-pyrrolo[3,2-b]pyridin-3-yl)pyrimidin-2-ol]: the results for the IC50 in assay [1] and in assay [3] were 364 nM and 968 nM, respectively.
The corresponding values for `Oc1cncc(-c2n[nH]c3ccc(-c4ccccc4F)cc23)n1` [Example 435] are 322 nM and 629 nM.
In the case of `CC(C)Nc1nnc(-c2c[nH]c3ccc(-c4cncc(OC(C)C)n4)cc23)o1` [Example 522], the IC50 in assay [1] was 90 nM; in assay [3] it was 446 nM.
`FCCOc1cncc(-c2n[nH]c3ccc(-c4nccc(C5CC5)n4)cc23)n1` [Example 385]: the IC50 in assay [1] was determined as 56 nM; in assay [3], 457 nM.
For `Fc1cccc(F)c1-c1ccc2[nH]nc(-c3cncc(CC4CCCNC4)n3)c2c1` (single isomer, unassigned) [Example 274, 5-(2,6-difluorophenyl)-3-(6-(3-piperidinylmethyl)-2-pyrazinyl)-1H-indazole], in that order: 20 nM and 90 nM.
For `Fc1cccc(F)c1-c1ccc2[nH]nc(-c3cncc(SC4CCCNC4)n3)c2c1` (single isomer, unassigned) [Example 415], in that order: 28 nM and 76 nM.
For the compound `COc1cnnc(-c2c[nH]c3ccc(-c4ccccc4F)nc23)c1` [Example 286, 5-(2-fluorophenyl)-3-(5-methoxypyridazin-3-yl)-1H-pyrrolo[3,2-b]pyridine], the IC50 is 581 nM in assay [1] and above 1000 nM in assay [3].
For `CC(C)C1CCNCC1Oc1cncc(-c2n[nH]c3ccc(-c4c(F)cccc4F)cc23)n1` (single isomer, unassigned) [Example 394], in that order: 30 nM and 203 nM.
